For test [1], the target named is Adenylate kinase (Escherichia coli) (UniProt P69441). Put plainly: Ability to inhibit Escherichia coli adenylate kinase III, activity expressed as Inhibition constant; Non competitive inhibition.
For test [2] the target is unchanged. Put plainly: Ability to inhibit Escherichia coli adenylate kinase II, activity expressed as Inhibition constant.

As usually defined, the Ki is the dissociation constant of the complex between target and ligand, obtained from inhibition or displacement. A lower Ki goes with higher affinity.

For the compound `O=C(CI)NCCCCCNc1ncnc2c1ncn2[C@@H]1O[C@H](COP(=O)(O)OP(=O)(O)OP(=O)(O)O)[C@@H](O)[C@H]1O`, the affinity in test [1], expressed as Ki, was 4.8 mM.

With `CC(=O)NCCCCCCNc1nc2c(N)ncnc2n1C1O[C@H](COP(=O)(O)OP(=O)(O)OP(=O)(O)O)[C@@H](O)[C@H]1O` (stereo not given in full), the Ki in test [2] turned out to be 6.7 mM.

`O=C(NCCCCCNc1ncnc2c1ncn2C1O[C@H](COP(=O)(O)OP(=O)(O)OP(=O)(O)O)[C@@H](O)[C@H]1O)OCc1ccccc1` (stereo not given in full) yielded an inhibitory constant (Ki) in test [2] of 4.7 mM.

For `NCCCCCCNc1nc2c(N)ncnc2n1C1O[C@H](COP(=O)(O)OP(=O)(O)OP(=O)(O)O)[C@@H](O)[C@H]1O` (stereo not given in full), in test [2], the affinity corresponds to a Ki of 7.3 mM. Against the preceding compound, the Ki is about 1.6-fold higher.

`CN(CCCN(C)C(=O)CCCCNc1ncnc2c1ncn2[C@@H]1O[C@H](COP(=O)(O)OP(=O)(O)OP(=O)(O)O)[C@@H](O)[C@H]1O)C(=O)CCCCNC(=O)OCc1ccccc1` had a Ki in test [2] of 6.8 mM.

(Values after BindingDB's records for doi:10.1021/jm00346a010 (1982).)
